Tests used:
Type in all cases: in vivo
[1] = system: soybean plant; assay: Effect on plant height of soybean plant; settings: average of 4 replications; for Plant height 14 DAA: 14 days after administration; for Plant height 28 DAA: 28 days after administration
Procedure: (§1) Experiments were carried out to evaluate the phytotoxicity, effect on plant height and effect on number of plants standing after treatments with combinations of one or more triazolone herbicides with one or more safeners.
(§2) Below table gives summary of the formulation details and application details of Sulfentrazone and Mefenpyr-diethyl, Isoxadifen-ethyl and Cloquintocet-mexyl that were used in combination with Sulfentrazone for treatments. Application method was spray and applications were made to soil.
(§3) Below table gives summary of the formulation details and application details of Sulfentrazone and Dichlormid, Fenclorim, Benoxacor, Flurazole and Fluxofenim that were used in combination with Sulfentrazone for treatments. Application method was spray and applications were made to soil.
Below table gives summary of effect on plant height of soybean plant shown by untreated check, Sulfentrazone alone and combination of Sulfentrazone with Mefenpyr-diethyl, Isoxadifen-ethyl and Cloquintocet-mexyl at different application rates.
Below table gives summary of effect on plant height of soybean plant shown by untreated check, Sulfentrazone alone and combination of Sulfentrazone with Dichlormid, Fenclorim, Benoxacor, Flurazole and Fluxofenim at different application rates.

[2] = system: soybean plants; assay: Number of soybean plants standing after herbicidal treatment; settings: average of 4 replications; for Number of plants standing 14 DAA: 14 days after administration; for Number of plants standing 28 DAA: 28 days after administration
Procedure: as §1, §2, §3
Below table gives summary of effect on number of soybean plants standing after herbicidal treatment shown by untreated check, Sulfentrazone alone and combination of Sulfentrazone with Mefenpyr-diethyl, Isoxadifen-ethyl and Cloquintocet-mexyl at different application rates.
Below table gives summary of effect on number of soybean plants standing after herbicidal treatment shown by untreated check, Sulfentrazone alone and combination of Sulfentrazone with Dichlormid, Fenclorim, Benoxacor, Flurazole and Fluxofenim at different application rates.

[3] = system: Brachiaria decumbens; assay: % weed control in soybean crop, spray application to soil; parameters: concentration or dose not given beside the values; settings: average of 4 replications; for % Weed Control 7 DAA: 7 days after administration; for % Weed Control 14 DAA: 14 days after administration; for % Weed Control 21 DAA: 21 days after administration; for % Weed Control 28 DAA: 28 days after administration; for % Weed Control 35 DAA: 35 days after administration
Source text: as §2, §3
Below table gives summary of % weed control shown in soybean crop by untreated check, Sulfentrazone alone and combination of Sulfentrazone with Mefenpyr-diethyl, Isoxadifen-ethyl and Cloquintocet-mexyl at different application rates. % weed control was checked for weed Brachiaria decumbens.
Below table gives summary of % weed control in soybean crop shown by untreated check, Sulfentrazone alone and combination of Sulfentrazone with Dichlormid, Fenclorim, Benoxacor, Flurazole and Fluxofenim at different application rates. % weed control was checked for weed Brachiaria decumbens.

[4] = treatments 9-20 (rates in Table 2)
[5] = treatments 1-8 (rates in Table 1)

Structure (SMILES)	Plant height 14 DAA [1, 4]	Plant height 28 DAA [1, 4]	Number of plants standing 14 DAA [2, 4]	Number of plants standing 28 DAA [2, 4]	% Weed Control 7 DAA [3, 4] [%]	% Weed Control 14 DAA [3, 4] [%]	% Weed Control 21 DAA [3, 4] [%]	% Weed Control 28 DAA [3, 4] [%]	% Weed Control 35 DAA [3, 4] [%]	Plant height 14 DAA [1, 5]	Plant height 28 DAA [1, 5]	Number of plants standing 14 DAA [2, 5]	Number of plants standing 28 DAA [2, 5]	% Weed Control 7 DAA [3, 5] [%]	% Weed Control 14 DAA [3, 5] [%]	% Weed Control 21 DAA [3, 5] [%]	% Weed Control 28 DAA [3, 5] [%]	% Weed Control 35 DAA [3, 5] [%]
Cc1nn(-c2cc(NS(C)(=O)=O)c(Cl)cc2Cl)c(=O)n1C(F)F [Treatment 10]	6.65	10.90	5.3	5.3	100	100	100	100	100	–	–	–	–	–	–	–	–	–
Cc1nn(-c2cc(NS(C)(=O)=O)c(Cl)cc2Cl)c(=O)n1C(F)F [Treatment 2]	–	–	–	–	–	–	–	–	–	2.90	5.15	5.3	4.5	100	100	100	100	100
